In brackets after ≈: the same amount, converted by molar mass.
Legend:
[1] = Stability trial at increased temperature and 75% relative humidity for 4 weeks (TGA, XRPD, IR); type: physicochemical
Protocol: During further stability analysis, samples of both the raw material and amorphous form (Form-III) of roxithromycin were kept at 25 degrees Celsius and 75% relative humidity (RH) (FIG. 7); 30 degrees Celsius and 75% relative humidity (FIG. 8); and 40 degrees Celsius and 75% relative humidity, for a period of 4 weeks. The samples were analysed by thermogravimetric analysis (TGA) and percentage weight loss/gain was determined.
It is evident from FIGS. 7 and 8 that after week 4 of a stability trial an amount of approximately 2.5% moisture is absorbed by the samples. The TGA results obtained for the samples stored at 40° C./75% RH (FIG. 9) did however not show the same extent of moisture absorption as that obtained with the samples of FIGS. 7 and 8. […] No moisture-induced recrystallisations of the amorphous form were observed. […] The amorphous form (Form-III) could therefore be regarded as stable against increased temperatures and humidity.
The IR data illustrates that the absorbed moisture was not structurally absorbed within the molecule, but only absorbed on the surface of the structure. This is confirmed by the peak between wavenumbers 3580 to 3464 cm^−1 that represents the —OH bands of roxithromycin raw material and the lack of peaks in the amorphous form (Form-III) of roxithromycin. […]

[2] = Solubility of roxithromycin forms in buffer media and water, excess solid, 37 degrees Celsius, 24 h, HPLC assay; type: physicochemical; conditions: for solubility at 24 h: 37 °C, thermodynamic from solid, 37 degrees Celsius
Protocol: In further analysis of the novel Form-III, each of five replicate test tubes were filled with an excess of the amorphous form (Form-III) of roxithromycin and 10 ml of solubility medium. The process was performed with each of the following mediums: acetate buffer (pH 4.5), phosphate buffer (pH 6.8), distilled water and 0.1 M HCl. The phosphate buffer comprises potassium dihydrogen phosphate, disodium hydrogen phosphate and water. The acetate buffer comprises ammonium acetate, glacial acetic acid and water. This method was also used for testing the prior art anhydrous roxithromycin.
The test tubes were fixed to a rotating axis (54 rpm) and submerged in a water bath at 37 degrees Celsius±2 degrees Celsius for twenty-four hours. The contents of the test tubes were filtered through a 0.45 μm filter and subsequently the respective filtrates were diluted.
The concentrations of the four filtrates of amorphous form (Form-III) of roxithromycin and roxithromycin raw material were respectively determined by HPLC (high performance liquid chromatography) assay. The HPLC assay was performed utilising a mobile phase of 30 g/L ammonium dihydrogen phosphate buffer at pH 5.3. The pH was adjusted with sodium hydroxide solution. The mobile phase comprised of buffer (600) and acetonitrile (400). A Luna C18 150 mm×4.6 mm column was used with a flow rate of 1.0 ml/min and a wavelength of 205 nm. Validation of this method provided a linear regression, R^2, of 0.9998.

**Q.** For `CC[C@H]1OC(=O)[C@H](C)[C@@H](O[C@H]2C[C@@](C)(OC)[C@@H](O)[C@H](C)O2)[C@H](C)[C@@H](O[C@@H]2O[C@H](C)C[C@H](N(C)C)[C@H]2O)[C@](C)(O)C[C@@H](C)/C(=N\OCOCCOC)[C@H](C)[C@@H](O)[C@]1(C)O` [Form-III, roxithromycin], which “solid-state stability of the amorphous form” value ([1]; 25, 30 and 40 degrees Celsius, 75% RH, 4 weeks) is on record?
**A.** Its value is “stable over a period of 4 weeks and did not recrystallise to a crystalline form”.

**Q.** What about the “recrystallisation (XRPD)” value ([1]; storage four weeks at 40 degrees Celsius and 75% relative humidity) of the same molecule?
**A.** Its value is “no recrystallisation”.

**Q.** And the solubility at 24 h ([2]; aqueous buffer, acetate buffer (pH 4.5))?
**A.** The solubility at 24 h was 1150 ± 6.5 µg/mL (≈ 1370 µM).

**Q.** And the solubility at 24 h ([2]; aqueous buffer, phosphate buffer (pH 6.8))?
**A.** The solubility at 24 h was 208 ± 3.7 µg/mL (≈ 249 µM).

**Q.** And the solubility at 24 h ([2]; distilled water)?
**A.** Its solubility at 24 h is 8.6 ± 1.8 µg/mL (≈ 10.3 µM).

**Q.** Which “stability in 0.1 M HCl” value ([2]; 0.1 M HCl solubility medium, results omitted for both forms) does the source give for `CC[C@H]1OC(=O)[C@H](C)[C@@H](O[C@H]2C[C@@](C)(OC)[C@@H](O)[C@H](C)O2)[C@H](C)[C@@H](O[C@@H]2O[C@H](C)C[C@H](N(C)C)[C@H]2O)[C@](C)(O)C[C@@H](C)/C(=N\OCOCCOC)[C@H](C)[C@@H](O)[C@]1(C)O` [roxithromycin, 3R, 4S, 5S, 6R, 7R, 9R, 11S, 12R, 13S, 14R-6-[(2S,3R,4S,6R)-4-dimethylamino-3-hydroxy-6-methyloxan-2-yl]oxy-14-ethyl-7,12,13-trihydroxy-4-[(2R,4R,5S,6S)-5-hydroxy-4-methoxy-4,6-dimethyloxan-2-yl]oxy-10-(2-methoxyethoxymethoxyimino)-3,5,7,9,11,13-hexamethyl-1-oxacyclotetradecan-2-one] here?
**A.** Its value is “rapid degradation”.

From patent US8951977B2, “Amorphous roxithromycin composition” (North-West University, priority 2011, dated 2015)
